pIC50, pKd, pKi: −log10 of the molar value.

For experiment [1], the target named is Group II (mGlu2 + mGlu3) receptors. The experiment in a line: Radioligand binding assay at Group II (mGlu2+mGlu3), [3H]LY341495, rat forebrain membranes. Conditions: for pKi: [3H]LY341495.
Method: (§1) Male Sprague Dawley rats (200-300 g, Charles River, Italy) were killed by cervical dislocation and the forebrain (cortex, striatum and hippocampus) and cerebellum were homogenized (2×20 sec) in 50 vols of cold 50 mM Tris buffer pH 7.4, using a Politron homogenizer (Kinematica). […] The final pellets were frozen and stored at −80° C. until use.
iii) Group II (mGlu2+mGlu3): On experimental section pellets from rat forebrain were resuspended in 250 vols of 20 mM HEPES, 2 mM MgCl2, 2 mM CaCl2, pH 7.4. The membranes were incubated in a final volume of 1 ml for 30 min at 0° C. with 1 nM [^3H]LY341495 in the absence or presence of competing drugs.
(§2) The filters were then washed with cold buffer and the radioactivity retained on the filters was counted by liquid scintillation spectrometry.
(§3) Data were expressed as the mean of pKi(−log Ki)±SE.
Experiment [2] relates to rhythmic bladder-voiding contractions in anaesthetised rats. The experiment in a line: Rhythmic bladder-voiding contractions induced by bladder filling in anaesthetised rats. The format is in vivo, rat. Conditions: for BLADDER CONTRACTIONS quiescence time: mean ± SEM; for activity as inhibitors of isovolumic voiding contractions (in words) / ED10min (extrapolated dose inducing 10 min of bladder quiescence): i.v.; for activity as inhibitors of isovolumic voiding contractions (in words): anaesthetised rats; for ED10min (extrapolated dose inducing 10 min of bladder quiescence): linear regression. The method, then:
The animals were housed with free access to food and water and maintained on a forced 12-hour alternating light-dark cycle at 22-24° C. for at least one week, except during the experiment. […] The catheter was tied in place with a ligature around the external urethral orifice and was connected to conventional pressure transducers (Statham P23 ID/P23 XL). […] The bladder was then filled via the recording catheter by incremental volumes of warm (37° C.) saline until reflex bladder-voiding contractions occurred (usually 0.8-1.5 ml). For intravenous injection of bioactive compounds, PE 50 polyethylene tubing filled with physiological saline was inserted into the jugular vein.
From the cystometrogram, the number of contractions recorded 15 minutes before (basal values) and after treatment, as well as the mean amplitude of these contractions (mean height of the peaks in mmHg), were evaluated.
Morphine was tested, too, as a reference standard for this model.

Experiment [3] concerns the target mGlu5a (Homo sapiens, UniProt P41594). Conditions: literature, functional models; cited from earlier work.
In experiment [4] the target is T1, mGlu1 (Rattus norvegicus, UniProt P23385).
T1 construct: pellets from rat cerebellum were resuspended; from tissue; host or cells: rat cerebellum membranes (male Sprague Dawley)
The experiment in a line: Radioligand binding assay at mGlu1, [3H]quisqualic acid, rat cerebellum membranes. Conditions: for pKi: [3H]quisqualic acid.
Method: as §1
i) mGlu1: On experimental section pellets from rat cerebellum were resuspended in 150-200 vols of 20 mM N-2-hydroxyethylpiperazine-N′-2-ethanesulfonic acid (HEPES), 2 mM MgCl2, 2 mM CaCl2, pH 7.4.
as §2, §3

The target in experiment [5] is mGlu5 (Rattus norvegicus, UniProt P31424). Conditions: rat forebrain; for pKi: read-out: mGlu5 Ki, [3H]MPEP.
Method: as §1
ii) mGlu5: On experimental section pellets from rat forebrain were resuspended in 100 vols of 20 mM HEPES, 2 mM MgCl2, 2 mM CaCl2, pH 7.4.
as §2, §3
Experiment [6] deals with mGlu1a (Homo sapiens, UniProt Q13255). Conditions: literature, functional models; cited from earlier work.
The target of experiment [7] is mGlu4a (Homo sapiens, UniProt Q14833). Conditions: literature, functional models; cited from earlier work.
The target of experiment [8] is mGlu2 (Homo sapiens, UniProt Q14416). Conditions: cited from earlier work.
Experiment [9] concerns the target mGlu7 (Homo sapiens, UniProt Q14831). Conditions: literature, functional models; cited from earlier work.
The test system of experiment [10] is conscious rats with bladder infused with dilute acetic acid. The experiment in a line: Cystometric parameters in conscious rats with bladder infused with dilute acetic acid. The class given is in vivo, rat. Conditions: 10 mg/kg oral, bladder infused with 0.2% acetic acid. The procedure: The method used was that described in Example 4. The basal BVC and MP values were evaluated as the mean of the values observed in the cystometrograms recorded over an initial period of 30-60 minutes. At this point in the test, the infusion was stopped and the test compounds were administered orally via gastric intubation. Infusion into the bladder was resumed, replacing the warm saline solution with dilute acetic acid (0.2%) and the variations in BVC and MP recorded were evaluated as mean values obtained in the cystometrograms 1, 2, 3 and 4 hours after the treatment, relative to the basal values. The compounds were administered in a volume of 2 ml/kg and the groups of control animals received the same amount of vehicle (0.5% Methocel in water) orally.
The statistical analysis of the data was performed as reported in Example 4.

For experiment [11], the target named is mGlu8 (Homo sapiens, UniProt O00222). Conditions: literature, functional models; cited from earlier work.
For experiment [12], the system named is conscious rats. The experiment in a line: Cystometric parameters in conscious rats (bladder infused with saline). The class given is in vivo, rat. The method, then:
Male Sprague-Dawley rats [Crl: CD® (SD) IGS BR] of 300-400 g b.w. supplied by Charles River Italia were used. The animals were housed with free access to food and water and maintained on a forced 12-hour-light/12-hour-dark cycle at 22-24° C. of temperature, except during the experiment. To quantify urodynamic parameters in conscious rats, cystometrographic studies were performed according to the procedure previously reported (Guarneri et al., Pharmacol. Res. 24: 75, 1991).
Briefly, the rats were anaesthetized by intraperitoneal administration of 3 ml/kg of Equithensin solution (pentobarbital 30 mg/kg and chloral hydrate 125 mg/kg) and placed in a supine position. An approximately 10 mm long midline incision was made in the shaved and cleaned abdominal wall. The urinary bladder was gently freed from adhering tissues, emptied and then cannulated via an incision in the bladder body, using a polyethylene cannula (0.58 mm internal diameter, 0.96 mm external diameter) which was permanently sutured with silk thread. For intravenous bolus injection, a similar polyethylene tubing filled with physiological saline containing sodium heparin (40 I.U./ml) was inserted into the jugular vein. The cannulae were exteriorized through a subcutaneous tunnel in the retroscapular area, where they were connected to a plastic adapter in order to avoid the risk of removal by the animal. For drug testing, the rats were utilized one day after implantation.
On the day of the experiment, the rats were placed in modified Bollman cages, i.e., restraining cages that were large enough to permit the rats to adopt a normal crouched posture, but narrow enough to prevent turning around. After a stabilization period of about 20 minutes, the free tip of the bladder cannula was connected through a T-shaped tube to a pressure transducer (Statham P23XL) and to a peristaltic pump (Gilson minipuls 2) for continuous infusion of a warm (37° C.) saline solution into the urinary bladder, at a constant rate of 0.1 ml/minute. The intraluminal-pressure signal during infusion of saline into the bladder was continuously recorded on a polygraph (Rectigraph-8K San-ei with BM614/2 amplifier from Biomedica Mangoni) and, from the cystometrogram, two urodynamic parameters were evaluated: bladder volume capacity (BVC) and micturition pressure (MP). BVC (in ml) is defined as the volume of saline infused into the bladder necessary to induce detrusor contraction followed by micturition. MP (in mmHg) is defined as the maximal intravesical pressure caused by contraction during micturition. Basal BVC and MP values were evaluated as the mean of the values observed in the cystometrograms recorded in an initial period of 30-60 minutes. At this point in the assay, the infusion was interrupted and the test compounds were administered either intravenously by the jugular catheter or orally by a stomach tube. The bladder infusion restarted and changes in BVC and MP were evaluated from the mean values obtained in the cystometrograms observed during 1, 2, 3, 4, and 5 hours after treatment. The compounds were administered in a volume of 1 ml/kg and 2 ml/kg for intravenous and oral administration routes, respectively. Groups of control animals received the same amount of vehicle corresponding to a solution of 8% dimethylformamide and 8% Tween 80 in water (final concentrations) for intravenous, or a solution of 0.5% methocel in water for oral route.
Under the given test conditions, measurement of BVC is equivalent to measurement of interval time between micturitions.
All data were expressed as mean±standard error. The percent changes of BVC and MP relative to the basal values, as well as Δ values (difference in ml or in mmHg) of BVC and MP (BVC or MP at time “x” minus basal value), were also evaluated for each rat/time. In the figures, data were reported as percentage changes relative to basal values. […]

Experiment [13] addresses mGlu6 (Homo sapiens, UniProt O15303). Conditions: literature, functional models; cited from earlier work.

Chain of mGlu5 (P31424 21-1203): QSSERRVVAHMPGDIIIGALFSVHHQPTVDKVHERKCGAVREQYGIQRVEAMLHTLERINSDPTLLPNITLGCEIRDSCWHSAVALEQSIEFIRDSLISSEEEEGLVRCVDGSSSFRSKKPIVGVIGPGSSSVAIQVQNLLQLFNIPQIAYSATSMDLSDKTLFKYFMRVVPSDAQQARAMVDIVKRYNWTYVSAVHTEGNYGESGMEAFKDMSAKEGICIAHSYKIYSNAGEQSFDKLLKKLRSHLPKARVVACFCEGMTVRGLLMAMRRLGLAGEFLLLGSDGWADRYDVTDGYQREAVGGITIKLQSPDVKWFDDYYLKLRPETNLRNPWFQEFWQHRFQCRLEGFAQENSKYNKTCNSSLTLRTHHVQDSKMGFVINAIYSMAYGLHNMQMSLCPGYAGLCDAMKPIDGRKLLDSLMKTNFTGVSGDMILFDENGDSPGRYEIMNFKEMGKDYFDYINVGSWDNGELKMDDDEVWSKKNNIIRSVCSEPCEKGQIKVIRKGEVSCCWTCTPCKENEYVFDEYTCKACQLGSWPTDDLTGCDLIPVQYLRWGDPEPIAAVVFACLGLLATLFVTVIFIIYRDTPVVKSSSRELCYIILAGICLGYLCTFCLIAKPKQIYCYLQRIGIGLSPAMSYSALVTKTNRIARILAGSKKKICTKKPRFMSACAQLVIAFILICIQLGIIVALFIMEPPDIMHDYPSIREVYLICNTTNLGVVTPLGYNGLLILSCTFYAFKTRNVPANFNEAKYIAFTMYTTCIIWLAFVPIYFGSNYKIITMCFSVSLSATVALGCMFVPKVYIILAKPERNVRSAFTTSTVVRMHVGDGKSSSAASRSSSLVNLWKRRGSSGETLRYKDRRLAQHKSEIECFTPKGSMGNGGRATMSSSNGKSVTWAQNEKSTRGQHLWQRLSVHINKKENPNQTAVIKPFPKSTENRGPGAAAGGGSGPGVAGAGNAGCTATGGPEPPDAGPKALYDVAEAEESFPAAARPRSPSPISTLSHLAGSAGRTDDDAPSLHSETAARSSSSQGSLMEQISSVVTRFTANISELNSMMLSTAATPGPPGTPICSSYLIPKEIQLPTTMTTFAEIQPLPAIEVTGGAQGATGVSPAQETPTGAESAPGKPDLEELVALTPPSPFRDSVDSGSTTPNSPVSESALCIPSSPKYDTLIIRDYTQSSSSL
T1 sequence (P23385 19-1199): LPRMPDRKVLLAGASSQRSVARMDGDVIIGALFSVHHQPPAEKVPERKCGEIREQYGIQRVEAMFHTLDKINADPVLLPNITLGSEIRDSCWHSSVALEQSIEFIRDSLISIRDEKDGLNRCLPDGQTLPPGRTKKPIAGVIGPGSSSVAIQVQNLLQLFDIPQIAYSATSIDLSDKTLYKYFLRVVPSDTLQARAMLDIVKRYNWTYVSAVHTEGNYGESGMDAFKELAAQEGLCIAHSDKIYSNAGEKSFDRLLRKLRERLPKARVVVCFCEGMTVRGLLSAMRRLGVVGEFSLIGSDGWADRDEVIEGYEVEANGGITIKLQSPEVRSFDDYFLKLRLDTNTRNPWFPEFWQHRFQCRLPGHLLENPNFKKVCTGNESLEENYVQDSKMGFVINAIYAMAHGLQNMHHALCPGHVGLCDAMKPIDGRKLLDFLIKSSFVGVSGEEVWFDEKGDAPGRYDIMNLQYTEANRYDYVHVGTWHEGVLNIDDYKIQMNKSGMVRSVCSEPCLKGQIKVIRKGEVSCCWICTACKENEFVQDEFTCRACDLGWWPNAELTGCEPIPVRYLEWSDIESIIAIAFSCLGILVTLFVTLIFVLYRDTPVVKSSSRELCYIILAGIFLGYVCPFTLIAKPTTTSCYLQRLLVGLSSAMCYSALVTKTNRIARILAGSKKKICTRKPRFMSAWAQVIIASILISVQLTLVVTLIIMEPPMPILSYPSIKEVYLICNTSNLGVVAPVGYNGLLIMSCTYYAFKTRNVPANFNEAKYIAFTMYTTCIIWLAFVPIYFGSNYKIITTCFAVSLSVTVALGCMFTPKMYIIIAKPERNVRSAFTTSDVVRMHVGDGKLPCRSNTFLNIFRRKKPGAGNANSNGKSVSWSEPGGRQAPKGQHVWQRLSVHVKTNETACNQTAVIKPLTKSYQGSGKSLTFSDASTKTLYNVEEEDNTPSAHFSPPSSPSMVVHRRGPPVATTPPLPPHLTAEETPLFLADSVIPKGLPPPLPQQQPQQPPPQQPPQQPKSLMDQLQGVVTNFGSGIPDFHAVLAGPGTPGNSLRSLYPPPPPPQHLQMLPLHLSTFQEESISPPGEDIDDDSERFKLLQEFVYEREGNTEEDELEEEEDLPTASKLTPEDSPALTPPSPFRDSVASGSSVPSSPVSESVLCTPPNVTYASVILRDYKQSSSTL
Chain of mGlu4a (Q14833 33-912): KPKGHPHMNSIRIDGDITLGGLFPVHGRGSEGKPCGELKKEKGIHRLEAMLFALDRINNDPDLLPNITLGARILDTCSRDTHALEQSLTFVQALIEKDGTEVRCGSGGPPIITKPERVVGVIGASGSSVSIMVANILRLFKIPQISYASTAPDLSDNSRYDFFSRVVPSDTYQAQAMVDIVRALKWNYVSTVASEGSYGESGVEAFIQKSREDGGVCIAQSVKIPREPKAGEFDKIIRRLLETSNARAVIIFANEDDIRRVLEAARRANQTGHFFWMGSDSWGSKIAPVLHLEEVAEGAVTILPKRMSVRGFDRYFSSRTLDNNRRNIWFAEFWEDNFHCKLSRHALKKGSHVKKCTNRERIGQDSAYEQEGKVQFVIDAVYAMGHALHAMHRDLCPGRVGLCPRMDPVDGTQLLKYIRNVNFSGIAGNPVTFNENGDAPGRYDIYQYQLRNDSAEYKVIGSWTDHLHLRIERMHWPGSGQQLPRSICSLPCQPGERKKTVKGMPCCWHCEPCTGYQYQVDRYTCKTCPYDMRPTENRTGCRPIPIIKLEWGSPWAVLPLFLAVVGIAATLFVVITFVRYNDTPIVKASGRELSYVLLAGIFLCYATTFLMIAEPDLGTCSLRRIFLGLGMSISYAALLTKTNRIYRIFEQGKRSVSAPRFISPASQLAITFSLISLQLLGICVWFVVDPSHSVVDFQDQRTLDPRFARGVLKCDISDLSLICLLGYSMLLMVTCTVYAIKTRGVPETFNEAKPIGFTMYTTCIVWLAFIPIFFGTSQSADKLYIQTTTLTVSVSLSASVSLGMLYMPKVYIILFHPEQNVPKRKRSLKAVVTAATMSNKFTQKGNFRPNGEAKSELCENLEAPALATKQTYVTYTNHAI
Chain of mGlu2 (Q14416 19-872): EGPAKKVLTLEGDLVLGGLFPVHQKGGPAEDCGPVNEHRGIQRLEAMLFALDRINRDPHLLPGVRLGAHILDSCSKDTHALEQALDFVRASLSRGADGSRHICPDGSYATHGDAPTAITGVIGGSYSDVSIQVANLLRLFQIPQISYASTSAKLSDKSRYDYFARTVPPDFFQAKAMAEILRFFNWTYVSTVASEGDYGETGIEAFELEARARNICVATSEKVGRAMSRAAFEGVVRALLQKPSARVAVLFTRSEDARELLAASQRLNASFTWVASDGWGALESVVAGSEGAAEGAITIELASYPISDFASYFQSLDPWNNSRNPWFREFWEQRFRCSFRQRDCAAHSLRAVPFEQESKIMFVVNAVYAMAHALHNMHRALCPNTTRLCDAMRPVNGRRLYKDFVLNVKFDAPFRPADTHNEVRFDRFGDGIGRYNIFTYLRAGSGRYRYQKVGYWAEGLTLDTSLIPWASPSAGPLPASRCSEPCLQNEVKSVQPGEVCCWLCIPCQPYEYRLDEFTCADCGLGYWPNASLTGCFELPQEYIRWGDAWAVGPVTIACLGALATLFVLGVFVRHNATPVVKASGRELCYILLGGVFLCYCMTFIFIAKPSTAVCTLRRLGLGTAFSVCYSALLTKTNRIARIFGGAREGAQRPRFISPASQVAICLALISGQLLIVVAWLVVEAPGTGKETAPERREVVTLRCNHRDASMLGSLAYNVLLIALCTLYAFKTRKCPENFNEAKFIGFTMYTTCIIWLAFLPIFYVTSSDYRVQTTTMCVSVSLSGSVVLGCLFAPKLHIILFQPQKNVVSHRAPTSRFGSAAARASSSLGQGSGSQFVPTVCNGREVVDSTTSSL
Chain of mGlu8 (O00222 34-908): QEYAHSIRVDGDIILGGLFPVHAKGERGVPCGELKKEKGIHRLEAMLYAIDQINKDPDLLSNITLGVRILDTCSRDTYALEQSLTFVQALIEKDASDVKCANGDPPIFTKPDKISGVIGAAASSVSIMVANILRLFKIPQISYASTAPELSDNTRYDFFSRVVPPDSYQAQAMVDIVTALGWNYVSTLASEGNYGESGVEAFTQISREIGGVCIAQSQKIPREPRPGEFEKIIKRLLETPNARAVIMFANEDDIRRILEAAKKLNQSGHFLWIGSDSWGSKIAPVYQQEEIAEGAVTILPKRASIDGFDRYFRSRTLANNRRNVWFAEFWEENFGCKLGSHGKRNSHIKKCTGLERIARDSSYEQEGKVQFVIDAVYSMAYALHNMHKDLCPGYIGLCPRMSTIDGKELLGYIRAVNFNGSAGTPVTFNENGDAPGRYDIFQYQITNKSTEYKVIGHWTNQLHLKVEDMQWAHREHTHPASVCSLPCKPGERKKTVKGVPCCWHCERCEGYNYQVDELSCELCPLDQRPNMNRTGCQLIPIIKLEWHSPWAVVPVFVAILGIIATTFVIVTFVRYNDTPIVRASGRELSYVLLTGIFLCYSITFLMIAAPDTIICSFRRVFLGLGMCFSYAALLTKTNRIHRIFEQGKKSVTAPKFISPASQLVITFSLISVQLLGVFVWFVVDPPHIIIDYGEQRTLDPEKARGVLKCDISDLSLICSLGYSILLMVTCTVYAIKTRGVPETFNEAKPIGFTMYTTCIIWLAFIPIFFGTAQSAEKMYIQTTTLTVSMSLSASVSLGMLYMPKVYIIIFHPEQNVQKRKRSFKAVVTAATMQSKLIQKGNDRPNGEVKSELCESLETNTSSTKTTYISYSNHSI

With `Cc1cc(C(=O)O)ccc1[C@H](N)C(=O)O` [LY 367385], the values for the pKi in experiment [1] (rat forebrain), in experiment [4] and in experiment [5] were below 6.00, 5.22 and below 5.00, respectively. Also, the figures for the “BLADDER CONTRACTIONS quiescence time” value in experiment [2] (3000 μg/kg i.v.) and in [2] (10000 μg/kg i.v.) were 1.00 ± 0.29 min and 1.95 ± 0.30 min, respectively. Besides, the “activity as inhibitors of isovolumic voiding contractions (in words)” value (from here on “activity as inhibitors”) in experiment [2] is “inactive”. Further, in [2], the “ED10min (extrapolated dose inducing 10 min of bladder quiescence)” value (“ED10min” for short) is above 10 mg/kg. Moreover, the pIC50 (usually the IC50 on a negative log10 scale, so that one unit is a factor of ten) in [3] is below 4.00; in experiment [6] it was 5.06. The “displacement of [3H]quisqualic acid from its binding sites (in words)” value in experiment [4] is listed as “significantly displaced”.

Take `N[C@](CC1c2ccccc2Oc2ccccc21)(C(=O)O)[C@H]1C[C@@H]1C(=O)O` [[^3H]LY341495]: the pKd – broadly, the Kd on a negative log10 scale, so that one unit is a factor of ten – in experiment [1] (rat forebrain membranes, saturable binding, read-out: Kd of radioligand binding to mGlu2+mGlu3 subtypes) was 8.60.

As for `N[C@](CC1c2ccccc2Oc2ccccc21)(C(=O)O)[C@H]1C[C@@H]1C(=O)O` [LY 341495], the “displacement of specific binding of [3H]LY341495 to Group II receptors (in words)” value in experiment [1] (rat forebrain) is reported as “displaced with high affinity”. Also, the negative-log Ki (pKi) (in general, the Ki on a negative log10 scale, so that one unit is a factor of ten) in experiment [1] (rat forebrain) is 8.40. Moreover, the “BLADDER CONTRACTIONS quiescence time” value in experiment [2] (100 μg/kg i.v.) came to 2.45 ± 1.39 min; in experiment [2] (300 μg/kg i.v.) it was 4.48 ± 1.31 min; in experiment [2] (1000 μg/kg i.v.), 4.65 ± 2.11 min. In addition, the “activity as inhibitors” value in experiment [2] is “inactive”. For the same compound, in experiment [2], the “ED10min” value was above 1 mg/kg.

Turning to `Cc1nc(C#Cc2cccnc2)cs1` [MTEP, 3-(2-methylthiazol-4-yl)ethynylpyridine], the “BLADDER CONTRACTIONS quiescence time” value in experiment [2] (30 μg/kg i.v.) was found to be 5.52 ± 1.09 min; in experiment [2] (100 μg/kg i.v.) it was 8.73 ± 2.11 min; in [2] (300 μg/kg i.v.), 13.90 ± 2.10 min; in experiment [2] (1000 μg/kg i.v.) it was 20.96 ± 4.66 min. For the same compound, the “activity as inhibitors” value in [2] is reported as “active”. Besides, the “ED10min” value in [2] is 0.106 mg/kg. The “inhibition of the specific binding of [3H]MPEP to mGlu5 receptor (in words)” value in experiment [5] was “most potent inhibitors”.

Regarding `NC1(C(=O)O)CCc2cc(C(=O)O)ccc21` (stereo not drawn) [AIDA], the negative-log Ki (pKi) in [1] (rat forebrain), in experiment [4] and in experiment [5] was below 5.00 each time. The “BLADDER CONTRACTIONS quiescence time” value was found to be 1.50 ± 0.54 min in [2] (1000 μg/kg i.v.), 2.33 ± 1.44 min in [2] (3000 μg/kg i.v.) and 2.35 ± 0.50 min in [2] (10000 μg/kg i.v.). For the same compound, the “activity as inhibitors” value in experiment [2] was “inactive”. Also, in experiment [2], the “ED10min” value is above 10 mg/kg. For the same compound, the pIC50 in experiment [7] and in [3] was below 3.00 throughout. In addition, the “mGlu2 activity (in words)” value in experiment [8] (literature (Moroni et al. 1997)) is “Weak”.

On to `CN1CC[C@]23c4c5ccc(O)c4O[C@H]2[C@@H](O)C=C[C@H]3[C@H]1C5` [Morphine], for which the “BLADDER CONTRACTIONS quiescence time” value in experiment [2] (10 μg/kg i.v.) is 2.76 ± 0.93 min; in [2] (30 μg/kg i.v.), 6.89 ± 2.11 min; in experiment [2] (100 μg/kg i.v.), 13.83 ± 2.40 min; in [2] (300 μg/kg i.v.), 18.17 ± 3.60 min. Besides, the “ED10min” value in experiment [2] was 0.05 mg/kg.

As to `Cc1cccc(C#Cc2ccccc2)n1` [MPEP, 2-methyl-6-(phenylethynyl)pyridine], the pIC50 is below 4.00 in experiment [9]; below 4.00 in experiment [11]; below 4.00 in [7]; below 4.00 in [13]; below 4.00 in experiment [6]; below 4.00 in experiment [8] (literature, functional models). For the same compound, the pKi is below 6.00 in experiment [1] (rat forebrain) and below 5.00 in experiment [4]. The “bladder volume capacity (BVC)” value in [10] (FIG. 5) was “effective in antagonizing the reduction of the bladder volume capacity”; in experiment [12] (10 mg/kg i.v., vs basal values and vs control group, FIG. 1) it was “significant increases in BVC”; in experiment [12] (3 and 10 mg/kg i.v., FIG. 1), “effective in increasing the bladder volume capacity”; in experiment [12] (oral, 3-10 and 30 mg/kg, effect at 10 mg/kg or higher, FIG. 3) it was “significant and dose-dependent increases in the BVC”. Besides, the “micturition pressure (MP)” value in experiment [10] (FIG. 6) is recorded as “no effect on the micturition pressure”; in experiment [12] (i.v., MPEP 3 and 10 mg/kg, SIB 1893 50 mg/kg, FIG. 2), “only mild effects on the micturition pressure”; in experiment [12] (oral, 10 and 30 mg/kg, vs control group, FIG. 4), “significantly reduced the MP”. The “BLADDER CONTRACTIONS quiescence time” value in [2] (30 μg/kg i.v.) was found to be 3.90 ± 1.37 min; in [2] (100 μg/kg i.v.) it was 7.09 ± 1.04 min; in experiment [2] (300 μg/kg i.v.) it was 12.64 ± 1.72 min; in experiment [2] (1000 μg/kg i.v.), 22.46 ± 5.35 min. Further, the “activity as inhibitors” value in experiment [2] is reported as “active”. For the same compound, the “ED10min” value in experiment [2] is 0.15 mg/kg. Besides, in [5], the “inhibition of the specific binding of [3H]MPEP to mGlu5 receptor (in words)” value is on record as “most potent inhibitors”.

Source of the values: patent publication US20040215284A1, “Treatment of neuromuscular dysfunction of the lower urinary tract with selective mGlu5 antagonists” (Recordati S.A., priority 2003, published 2004).
